Experimental data as given in patent US20230115350A1 (Cedilla Therapeutics, Inc., priority 2021, published 2023).

What was measured:
[1] = tested on: NCI-H226; experiment: 72H TEAD Proliferation Assay (Cell Titer-Glo 2.0); type: cell-based; conditions: CTG 2.0, cell line not given
Experimental: The effect of TEAD inhibition on cell proliferation was assayed using Cell Titer Glo (CTG) 2.0 to measure response in mesothelioma cell lines NCI-H226 (ATCC, #CRL-5826) and NCI-H28 (ATCC, #CRL-5820).
The 72H TEAD Proliferation assay utilizes Cell Titer-Glo 2.0 (Promega, #G9243) to measure the proliferation of cells in the presence or absence of compound. Cell Titer-Glo 2.0 determines the amount of viable cells by quantifying ATP (an indication of metabolically active cells). It utilizes the conversion of Luciferin to Oxyluciferin and a luminescent signal with the use of ATP to report the quantity of viable cells in culture. Within cells that are continually growing, ATP is being synthesized to meet their metabolic demands, meanwhile the opposite is true for cells that are dying or slowing down their proliferation and either no longer using ATP or are using less, respectively. The NF2-deficient NCI-H226 has been genetically validated as a cell line that is sensitive to TEAD inhibition. The NF2-wild type NCI-H28 has been genetically validated as a cell line that is not sensitive to TEAD inhibition and grows independently of TEAD activity.
Compounds were screened against the responsive NCI-H226 cell line to assess the compounds' ability to inhibit TEAD and cell growth. Compounds were also screened against the non-responsive NCI-H28 cell line to ascertain whether the inhibition of cell growth was due to inhibition of the target TEAD or whether the inhibition was due to off-target cytotoxicity.
1) Assay ready plates (ARPs) were prepared by Echo acoustic liquid handler. For each compound, duplicate of 10-point half-log dilution series were dispensed in a 384-well microplate (Corning 3571).
5) NCI-H226 or NCI-H28 cells were harvested from culture in Assay Medium 1 and the multidrop Combi reagent dispenser was used to seed cells at 500 cells per 50 ul in each well of the ARPs and one Corning 3571 plate without compounds for Time 0 (TO) readout.
6) The TO plate was incubated for 2 hours at 37° C. with 5% CO2 to allow cells to settle, then the CTG Assay was performed.
7) All ARPs were incubated for 72 hours at 37° C. with 5% CO2, then the CTG Assay was performed for Time 72H (T72) readout.
8) CTG Assay: Bravo liquid handler (Agilent) was used to add 25 ul of CTG 2.0 to all columns of the plate except for Column 24, which was used to subtract out the background. After CTG addition, plates were placed on shaker at 800 RPM for 15 minutes at room temperature and kept in the dark. Luminescence was measured using EnVision multilabel plate reader with ultra-sensitive detection module.
9) Data Analysis: First background luminescence (no CTG wells) was subtracted from luminescence reading of all wells, then TO luminescence was subtracted from T72 luminescence. To compare anti-proliferative effect of compounds, GI50 was obtained by fitting dose response curves with nonlinear regression curve fit.

[2] = target: TEAD1 protein (YAP Binding Domain) (Homo sapiens, UniProt P28347); experiment: TEAD1 lipid pocket compound displacement assay (TR-FRET, Cy5-probe); conditions: 60 minutes incubation at room temperature; TR-FRET 665 nm/620 nm; read-out: CDA IC50
Experimental: Compound Displacement Assay.
A TEAD1 lipid pocket displacement assay was carried out according to the following protocol. Purified His-tagged TEAD1 protein (YAP Binding Domain) was pre-mixed with a Cy5-probe (Cy5-conjugated to a small molecule that binds in the TEAD1 lipid pocket) and Terbium-labeled anti-His antibody (Cisbio Cat 61HI2TLB). The binding of the Cy5-probe to anti-His-Tb/His-tag TEAD1 complex yielded a TR-FRET signal. […] After 60 minutes incubation at room temperature of compounds with the His-TEAD1/anti-His-Tb/Cy5-probe complex, the plate was read on a plate reader (BMG ClarioStar Cat 430-1300) using TR-FRET mode with wavelengths of 665 nm/620 nm. The potency of compounds as TEAD1 lipid pocket binders was determined by IC50 value generated using a non-linear 4 parameter curve fit.

Chain of TEAD1 protein (YAP Binding Domain) (P28347 209-426 limits assumed): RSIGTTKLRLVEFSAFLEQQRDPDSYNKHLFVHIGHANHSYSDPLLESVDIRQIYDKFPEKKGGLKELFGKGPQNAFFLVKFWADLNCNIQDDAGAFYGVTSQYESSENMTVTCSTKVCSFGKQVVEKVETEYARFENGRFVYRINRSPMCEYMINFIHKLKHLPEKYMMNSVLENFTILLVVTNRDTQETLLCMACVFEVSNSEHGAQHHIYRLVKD

Compound	GI50 [1]	IC50 [2]	GI50 ([1]; Homo sapiens, NCI-H226, 72 h)
C=CC(=O)Nc1cc2nc(C3CCC(F)(F)CC3)oc2cc1F [Compound 135, N-(2-(4,4-difluorocyclohexyl)-6-fluorobenzo[d]oxazol-5-yl)acrylamide]	≤ 0.25 µM	0.5 to 2 µM	–
C=CC(=O)Nc1ccc(OCCC(F)(F)F)c(F)c1 [Compound 103, N-(3-fluoro-4-(3,3,3-trifluoropropoxy)phenyl)acrylamide]	–	> 2 µM	1 to 3 µM
C=CC(=O)Nc1ccc(OCc2cccc(F)c2Cl)c(C#N)c1 [Compound 39, N-(4-((2-chloro-3-fluorobenzyl)oxy)-3-cyanophenyl)acrylamide]	–	0.25 to 0.5 µM	≤ 0.25 µM
C=CC(=O)Nc1ccc(NCC2CCC(F)(F)CC2)c(F)c1 [Compound 109, N-(4-(((4,4-difluorocyclohexyl)methyl)amino)-3-fluorophenyl)acrylamide]	–	0.25 to 0.5 µM	0.25 to 1 µM
C=C(F)C(=O)Nc1ccc(OCC2CCC(F)(F)CC2)c(F)c1 [Compound 149, N-(4-((4,4-difluorocyclohexyl)methoxy)-3-fluorophenyl)-2-fluoroacrylamide]	–	0.25 to 0.5 µM	≤ 0.25 µM
C=CC(=O)Nc1ccc(OCc2ccc(F)cc2Cl)c(F)c1 [Compound 84, N-(4-((2-chloro-4-fluorobenzyl)oxy)-3-fluorophenyl)acrylamide]	–	0.5 to 2 µM	1 to 3 µM
C=CC(=O)Nc1cc2nc(CCC(F)(F)F)oc2cc1F [Compound 144, N-(6-fluoro-2-(3,3,3-trifluoropropyl)benzo[d]oxazol-5-yl)acrylamide]	–	> 2 µM	0.25 to 1 µM
C=CC(=O)Nc1ccc(/C=C/c2cccc(F)c2)c(F)c1 [Compound 27, (E)-N-(3-fluoro-4-(3-fluorostyryl)phenyl)acrylamide]	–	0.5 to 2 µM	1 to 3 µM
C=CC(=O)Nc1cc2nc(CC3CC3)oc2cc1F [Compound 134, N-(2-(cyclopropylmethyl)-6-fluorobenzo[d]oxazol-5-yl)acrylamide]	–	> 2 µM	1 to 3 µM
C=CC(=O)Nc1ccc2c(c1)OC(c1cccc(C(F)(F)F)c1)O2 (centres unmarked) [Compound 146, N-(2-(3-(trifluoromethyl)phenyl)benzo[d][1,3]dioxol-5-yl)acrylamide]	–	≤ 0.25 µM	≤ 0.25 µM
C=CC(=O)Nc1ccc(C2COc3ccccc3C2)c(F)c1 (centres unmarked) [Compound 120, N-(4-(chroman-3-yl)-3-fluorophenyl)acrylamide]	–	0.25 to 0.5 µM	> 3 µM
C=CC(=O)Nc1ccc(Nc2ccc(F)cc2)c(F)c1 [Compound 108, N-(3-fluoro-4-((4-fluorophenyl)amino)phenyl)acrylamide]	–	> 2 µM	0.25 to 1 µM
C=CC(=O)Nc1ccc(OCc2cccc(F)c2)c(F)c1 [Compound 100, N-(3-fluoro-4-((3-fluorobenzyl)oxy)phenyl)acrylamide]	–	0.25 to 0.5 µM	> 3 µM
C=CC(=O)Nc1ccc(COc2cccc(C(F)(F)F)c2)c(F)c1 [Compound 31, N-(3-fluoro-4-((3-(trifluoromethyl)phenoxy)methyl)phenyl)acrylamide]	–	≤ 0.25 µM	≤ 0.25 µM
C=CC(=O)Nc1ccc(-c2ccc(C(C)(C)C)cc2)c2ncccc12 [Compound 151, N-(8-(4-(tert-butyl)phenyl)quinolin-5-yl)acrylamide]	–	0.25 to 0.5 µM	≤ 0.25 µM
C=CC(=O)Nc1ccc(OCc2ccnc(C(F)(F)F)c2)c(F)c1 [Compound 116, N-(3-fluoro-4-((2-(trifluoromethyl)pyridin-4-yl)methoxy)phenyl)acrylamide]	–	0.25 to 0.5 µM	0.25 to 1 µM
C=CC(=O)Nc1ccc(OCC2CCC(F)(F)CC2)c2ccnn12 [Compound 23, N-(4-((4,4-difluorocyclohexyl)methoxy)pyrazolo[1,5-a]pyridin-7-yl)acrylamide]	–	≤ 0.25 µM	1 to 3 µM

Compound	GI50 [1]	IC50 [2]	GI50 ([1]; Homo sapiens, NCI-H226, 72 h)
C=CC(=O)Nc1cc2nc(Cc3ccc(F)cc3)oc2cc1F [Compound 142, N-(6-fluoro-2-(4-fluorobenzyl)benzo[d]oxazol-5-yl)acrylamide]	–	0.5 to 2 µM	1 to 3 µM
C=CC(=O)Nc1cnc(OCc2cccc(F)c2)c(F)c1 [Compound 129, N-(5-fluoro-6-((3-fluorobenzyl)oxy)pyridin-3-yl)acrylamide]	–	0.25 to 0.5 µM	> 3 µM
C=CC(=O)Nc1cc2nc(CCC(F)(F)C(F)(F)F)oc2cc1F [Compound 140, N-(6-fluoro-2-(3,3,4,4,4-pentafluorobutyl)benzo[d]oxazol-5-yl)acrylamide]	–	≤ 0.25 µM	≤ 0.25 µM
C=CC(=O)Nc1ccc(OCc2cccnc2Cl)c(F)c1 [Compound 76, N-(4-((2-chloropyridin-3-yl)methoxy)-3-fluorophenyl)acrylamide]	–	> 2 µM	> 3 µM
C=CC(=O)Nc1ccc(OCc2cncc(C)c2)c(F)c1 [Compound 71, N-(3-fluoro-4-((5-methylpyridin-3-yl)methoxy)phenyl)acrylamide]	–	> 2 µM	> 3 µM
C=CC(=O)Nc1ccc(Oc2cccc(F)c2)c(F)c1 [Compound 106, N-(3-fluoro-4-(3-fluorophenoxy)phenyl)acrylamide]	–	≤ 0.25 µM	> 3 µM
C=CC(=O)Nc1ccc(-c2ccc(C(F)(F)F)cc2)c2ncccc12 [Compound 150, N-(8-(4-(trifluoromethyl)phenyl)quinolin-5-yl)acrylamide]	–	≤ 0.25 µM	≤ 0.25 µM
C=CC(=O)Nc1cc2nc(CCC(C)C)oc2cc1F [Compound 132, N-(6-fluoro-2-isopentylbenzo[d]oxazol-5-yl)acrylamide]	–	0.25 to 0.5 µM	≤ 0.25 µM
C=CC(=O)Nc1ccc(OCc2ccc(F)c(F)c2)c(C#N)c1 [Compound 40, N-(3-cyano-4-((3,4-difluorobenzyl)oxy)phenyl)acrylamide]	–	0.5 to 2 µM	1 to 3 µM
C=CC(=O)Nc1ccc(OCc2cc(F)ccc2Cl)c(F)c1 [Compound 78, N-(4-((2-chloro-5-fluorobenzyl)oxy)-3-fluorophenyl)acrylamide]	–	0.5 to 2 µM	> 3 µM
C=CC(=O)Nc1ccc(OCC2CCOCC2)c(F)c1 [Compound 54, N-(3-fluoro-4-((tetrahydro-2H-pyran-4-yl)methoxy)phenyl)acrylamide]	–	> 2 µM	1 to 3 µM
C=CC(=O)Nc1ccc(OCC2CCC(F)(F)CC2)c2ccccc12 [Compound 49, N-(4-((4,4-difluorocyclohexyl)methoxy)naphthalen-1-yl)acrylamide]	–	≤ 0.25 µM	≤ 0.25 µM
C=CC(=O)Nc1ccc(OC(C)c2cccc(C(F)(F)F)c2)c(F)c1 (centres unmarked) [Compound 105, N-(3-fluoro-4-(1-(3-(trifluoromethyl)phenyl)ethoxy)phenyl)acrylamide]	–	≤ 0.25 µM	0.25 to 1 µM
C=CC(=O)Nc1cc2nc(Cc3ccccc3)oc2cc1F [Compound 137, N-(2-benzyl-6-fluorobenzo[d]oxazol-5-yl)acrylamide]	–	0.25 to 0.5 µM	> 3 µM
C=CC(=O)Nc1ccc(Oc2ccccc2)c(F)c1 [Compound 112, N-(3-fluoro-4-phenoxyphenyl)acrylamide]	–	0.25 to 0.5 µM	> 3 µM
CN(C)C/C=C/C(=O)Nc1ccc(OCc2cccc(F)c2)c(F)c1 [Compound 125, (E)-4-(dimethylamino)-N-(3-fluoro-4-((3-fluorobenzyl)oxy)phenyl)but-2-enamide]	–	> 2 µM	> 3 µM
C=C(F)C(=O)Nc1ccc2c(c1)OC(c1cccc(C(F)(F)F)c1)O2 (centres unmarked) [Compound 148, 2-fluoro-N-(2-(3-(trifluoromethyl)phenyl)benzo[d][1,3]dioxol-5-yl)acrylamide]	–	0.5 to 2 µM	0.25 to 1 µM
